What was measured:
Type in all cases: cell-based, human
[1] = tested on: Aβ42/40 ratio; test: Aβ42/40 ratio in FAD1 iPS cell-derived nerve cells (primary/secondary screening, dose dependency); settings: secondary screening
From the text: (§1) To perform induction from iPS cells to the cerebral cortex nerve early and with high reproducibility, iPS cells introduced with human Neurogenin 2 gene (NGN2) linked to doxycycline-inducible promoter by using PiggyBac were used (FIG. 1a, FIG. 1b, FIG. 4a and FIG. 4b). IPS cells prepared from 4 patients with familial Alzheimer's disease (FAD), 2 patients with sporadic Alzheimer's disease (SAD) and 4 healthy individuals (HC) were used. The iPS cells were established by the method described in Okita K et al., Nature.
(§2) Structural formulas (those in the form of salt or halide are also described as free form) and the general names of the candidate compounds are shown in Table 1.
(§3) To further study reproducibility of the candidate drugs obtained by the primary screening, secondary screening was conducted. In addition to Aβ40, Aβ42, Aβ42/40 ratio, Aβ38, Aβ43, sAPPα, sAPPβ were also studied and each numerical value was obtained.

[2] = tested on: Aβ42; test: Aβ42 in FAD1 iPS cell-derived nerve cells (primary/secondary screening, dose dependency); settings: secondary screening, FAD1 iPS cell-derived nerve cells, numerical value (Aβ change rate)
From the text: as §1, §2, §3

[3] = tested on: Aβ38; test: Aβ38 in FAD1 iPS cell-derived nerve cells (secondary screening); parameters: scale not given here
Method: as §3

[4] = tested on: Aβ43; test: Aβ43 in FAD1 iPS cell-derived nerve cells (secondary screening); parameters: scale not given here
Method: as §3

[5] = tested on: sAPPβ; test: sAPPβ in FAD1 iPS cell-derived nerve cells (secondary screening); parameters: sAPPβ: scale not given here; settings: secondary screening, FAD1 iPS cell-derived nerve cells
Method: as §3

[6] = tested on: sAPPα; test: sAPPα in FAD1 iPS cell-derived nerve cells (secondary screening); parameters: scale not given here; settings: secondary screening, FAD1 iPS cell-derived nerve cells
Method: as §3

Row | Compound | Ratio Aβ42/40 [1] | Aβ42 [2] | Aβ38 [3] | Aβ43 [4] | sAPPβ [5] | sAPPα [6]
1 | CN1CCCN=C1COC(=O)C(O)(c1ccccc1)C1CCCCC1 (stereo not drawn) [compound 1, OXYPHENCYCLIMINE] | 1.03 | 0.99 | 1.08 | 0.98 | 1 | 0.91
2 | Cc1cccc(C)c1NC(=O)C1CCCCN1C (stereo not drawn) [compound 2, MEPIVACAINE] | 0.93 | 0.9 | 1.01 | 0.83 | 0.88 | 0.77
3 | COc1ccccc1OCC(O)CN1CCN(CC(=O)Nc2c(C)cccc2C)CC1 (stereo not drawn) [compound 3, RANOLAZINE] | 0.89 | 0.85 | 1 | 0.82 | 0.61 | 0.64
4 | CNCC[C@@H](Oc1ccccc1C)c1ccccc1 [compound 4, ATOMOXETINE] | 0.94 | 0.95 | 1.1 | 0.89 | 0.81 | 0.78
5 | CN(C/C=C/C#CC(C)(C)C)Cc1cccc2ccccc12 [compound 5, TERBINAFINE] | 0.96 | 0.94 | 1.06 | 0.94 | 1.06 | 0.98
6 | CN(C)C(=O)C(CCN1CCC(O)(c2ccc(Cl)cc2)CC1)(c1ccccc1)c1ccccc1 [compound 6, LOPERAMIDE] | 0.93 | 0.88 | 1.03 | 0.88 | 0.78 | 0.89
7 | CCN(CCCc1ccccc1)CCCc1ccccc1 [compound 7, ALVERINE] | 0.93 | 0.86 | 0.94 | 0.79 | 0.63 | 0.78
8 | CN1CCc2cccc3c2[C@H]1Cc1ccc(O)c(O)c1-3 [compound 8, APOMORPHINE] | 1.01 | 0.93 | 1.08 | 1.01 | 0.78 | 0.8
9 | CCN(CC)CCOc1ccc(/C(=C(\Cl)c2ccccc2)c2ccccc2)cc1 [compound 9, CLOMIPHENE] | 0.89 | 0.83 | 1.04 | 0.86 | 0.66 | 0.71
10 | CN1C(=O)CC[C@H]1c1cccnc1 [compound 10, COTININE] | 0.94 | 0.87 | 1.08 | 0.87 | 0.81 | 0.81
11 | O=C(O)c1cc(=O)c2c(OCC(O)COc3cccc4oc(C(=O)O)cc(=O)c34)cccc2o1 [compound 11, CROMOLYN] | 0.96 | 0.88 | 1.04 | 0.82 | 0.86 | 0.89
12 | CN1CCN(C(c2ccccc2)c2ccccc2)CC1 [compound 12, CYCLIZINE] | 0.95 | 1.04 | 1.23 | 1.06 | 1.3 | 1.03
13 | CNCCCN1c2ccccc2CCc2ccccc21 [compound 13, DESIPRAMINE] | – | 0.94 | – | 0.9 | 1.01 | 0.83
14 | CN(C)CCOC(c1ccccc1)c1ccccc1 [compound 14, diphenhydramine] | – | 0.98 | 1.06 | 0.97 | 1.02 | 0.97
15 | CCN(CC)C(C)CN1c2ccccc2Sc2ccccc21 (stereo not drawn) [compound 15, ETHOPROPAZINE] | 0.88 | 0.84 | 1.03 | 0.84 | 0.71 | 0.72
16 | CN1[C@@H]2CC[C@@H]1CC(OC(=O)C(O)c1ccccc1)C2 (stereo partly drawn) [compound 16, HOMATROPINE] | – | 1.04 | 1.22 | 1.09 | 1.24 | 1.15
17 | CN(C)CCCN1c2ccccc2CCc2ccccc21 [compound 17, IMIPRAMINE] | – | – | 1.12 | 1.27 | 1.2 | –
18 | Nc1c2c(nc3ccccc13)CCCC2 [compound 18, TACRINE] | 1.02 | 1 | 1.18 | 1.21 | 1.23 | 1.04

Row | Compound | Ratio Aβ42/40 [1] | Aβ42 [2] | Aβ38 [3] | Aβ43 [4] | sAPPβ [5] | sAPPα [6]
19 | CC(C)[N+](C)(CCC(C(N)=O)(c1ccccc1)c1ccccc1)C(C)C [compound 19, ISOPROPAMIDE] | 1.24 | 0.88 | 1.09 | 0.95 | 0.74 | 0.84
20 | c1ccc2[nH]c(-c3cscn3)nc2c1 [compound 20, THIABENDAZOLE] | 0.88 | 0.84 | 1.05 | 0.79 | 0.67 | 0.79
21 | CNCCc1ccccn1 [compound 21, BETAHISTINE] | 1.08 | 0.98 | 1.01 | 0.87 | 0.91 | 0.73
22 | OC1CCCCC1N1CCC(c2ccccc2)CC1 (stereo not drawn) [compound 22, VESAMICOL] | 0.97 | 0.9 | 1 | 0.87 | 0.74 | 0.89
23 | Oc1ccc(OCc2ccccc2)cc1 [compound 23, MONOBENZONE] | 0.91 | 0.82 | 1.05 | 0.89 | 0.56 | 0.74
24 | CN1CCN(C2=Nc3ccccc3Oc3ccc(Cl)cc32)CC1 [compound 25, LOXAPINE] | 0.98 | 0.94 | 1.11 | 1.14 | 1.11 | 1.15
25 | CCc1cccc2c3c([nH]c12)C(CC)(CC(=O)O)OCC3 (stereo not drawn) [compound 26, ETODOLAC] | 1.13 | 0.99 | 1.11 | 1.55 | 0.98 | 0.99
26 | c1ccc(-c2ccc(C(c3ccccc3)n3ccnc3)cc2)cc1 (stereo not drawn) [compound 27, BIFONAZOLE] | 0.84 | 0.84 | 1.06 | 0.99 | 1.19 | 1.04
27 | CN1Cc2c(N)cccc2C(c2ccccc2)C1 (stereo not drawn) [compound 28, NOMIFENSINE] | 0.75 | 0.8 | 0.95 | 0.85 | 0.67 | 0.82
28 | O=C(O)COCCN1CCN([C@H](c2ccccc2)c2ccc(Cl)cc2)CC1 [compound 30, LEVOCETIRIZINE] | – | 0.76 | 0.98 | 0.85 | 0.93 | 0.93
29 | CSc1ccc2c(c1)C(N1CCN(C)CC1)Cc1ccccc1S2 (stereo not drawn) [compound 31, METITEPINE] | 0.86 | 0.83 | 1.03 | 0.88 | 0.66 | 0.76
30 | O=C(O)CCNC(=O)c1ccccc1 [compound 32, BETAMIPRON] | 0.82 | 0.84 | 1.1 | 0.82 | 0.6 | 0.7
31 | CCN(CC)CCNC(C(=O)OCCC(C)C)c1ccccc1 (stereo not drawn) [compound 33, CAMYLOFINE] | 0.85 | 0.9 | 1.12 | 0.88 | 0.71 | 0.89
32 | O=C(CCNNC(=O)c1ccncc1)NCc1ccccc1 [compound 34, NIALAMIDE] | 0.87 | 0.92 | 1.16 | 0.97 | 1.13 | 0.92
33 | O=S(=O)(O)c1cc(I)c(O)c2ncccc12 [compound 35, CHINIOFON] | 0.86 | 0.83 | 1.05 | 0.79 | 0.6 | 0.71
34 | c1cnc(N2CCN(Cc3ccc4c(c3)OCO4)CC2)nc1 [compound 36, PIRIBEDIL] | 0.83 | 0.87 | 1.11 | 1.09 | 0.82 | 0.92
35 | O=C(O)c1cccnc1Nc1cccc(C(F)(F)F)c1 [compound 37, NIFLUMIC ACID] | 0.86 | 0.77 | 0.97 | 0.85 | 0.92 | 0.8
36 | CCN(CC)CCOC(=O)C1(C2CCCCC2)CCCCC1 [compound 104, DICYCLOMINE] | – | 0.93 | 1.08 | 0.82 | 0.84 | 0.81

Source: patent US11026942B2, “Agent for preventing and/or treating Alzheimer's disease” (KYOTO UNIVERSITY, priority 2015, dated 2021)
